Results as given in PubChem BioAssay (NCI).
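Following 48 hours of exposure in 96-well plates, responses at five concentrations were used to interpolate endpoints linearly. GI50 marks 50% less growth. TGI denotes the concentration required for complete inhibition of growth.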

Columns and labels:
Experiment in all cases: NCI-60 cell line screen, 48 h
SK-MEL-28 melanoma = tested on: SK-MEL-28 melanoma
HL-60(TB) leukemia = tested on: HL-60(TB) leukemia
SW-620 colon = tested on: SW-620 colon
786-0 renal = tested on: 786-0 renal
SF-295 CNS = tested on: SF-295 CNS
HCC-2998 colon = tested on: HCC-2998 colon
HS 578T breast = tested on: HS 578T breast
MOLT-4 leukemia = tested on: MOLT-4 leukemia
UO-31 renal = tested on: UO-31 renal
MDA-MB-468 breast = tested on: MDA-MB-468 breast
SR leukemia = tested on: SR leukemia
SK-OV-3 ovarian = tested on: SK-OV-3 ovarian
SF-268 CNS = tested on: SF-268 CNS
A549 NSCLC = tested on: A549 NSCLC
SN12C renal = tested on: SN12C renal
CAKI-1 renal = tested on: CAKI-1 renal
HT29 colon = tested on: HT29 colon
MCF7 breast = tested on: MCF7 breast
IGROV1 ovarian = tested on: IGROV1 ovarian
HCT-15 colon = tested on: HCT-15 colon
OVCAR-5 ovarian = tested on: OVCAR-5 ovarian
SK-MEL-5 melanoma = tested on: SK-MEL-5 melanoma
NCI-H522 lung = tested on: NCI-H522 lung
NCI/ADR-RES ovarian = tested on: NCI/ADR-RES ovarian
HOP-62 NSCLC = tested on: HOP-62 NSCLC
U251 CNS = tested on: U251 CNS
K-562 leukemia = tested on: K-562 leukemia
PC-3 prostate = tested on: PC-3 prostate
SK-MEL-2 melanoma = tested on: SK-MEL-2 melanoma

`O=C(NNc1nc2cc(F)ccc2n2c(CN3CC4CNCC4C3)ccc12)c1ccncn1` (stereo not drawn) showed a GI50 (SK-MEL-28 melanoma) of 2.36 µM, a TGI (SK-MEL-28 melanoma) of 14.1 µM and a GI50 (HL-60(TB) leukemia) of 1.23 µM. For the same molecule, the TGI (HL-60(TB) leukemia) was 4.51 µM, the GI50 (SW-620 colon) was 2.55 µM and the TGI (SW-620 colon) was 23.1 µM. For the same molecule, the GI50 (786-0 renal) was 0.5 µM, the TGI (786-0 renal) was 11.3 µM and the GI50 (SF-295 CNS) was 0.421 µM. The TGI (SF-295 CNS) was 10.7 µM, the GI50 (HCC-2998 colon) was 3.05 µM and the TGI (HCC-2998 colon) was 17.5 µM. The GI50 (HS 578T breast) was 10 µM, the TGI (HS 578T breast) was 81.9 µM and the GI50 (MOLT-4 leukemia) was 1.45 µM. For the same molecule, the TGI (MOLT-4 leukemia) was 9.6 µM, the GI50 (UO-31 renal) was 0.822 µM and the TGI (UO-31 renal) was 11.7 µM. For the same molecule, the GI50 (MDA-MB-468 breast) was 1.21 µM, the TGI (MDA-MB-468 breast) was 3.57 µM and the GI50 (SR leukemia) was 0.751 µM. For the same molecule, the TGI (SR leukemia) was 9.24 µM, the GI50 (SK-OV-3 ovarian) was 0.984 µM and the TGI (SK-OV-3 ovarian) was 12.1 µM. It also gave a GI50 (SF-268 CNS) of 1.71 µM, a TGI (SF-268 CNS) of 15 µM and a GI50 (A549 NSCLC) of 2.09 µM. The TGI (A549 NSCLC) was 14.9 µM, the GI50 (SN12C renal) was 1.79 µM and the TGI (SN12C renal) was 11.8 µM. The GI50 (CAKI-1 renal) was 0.654 µM, the TGI (CAKI-1 renal) was 12.8 µM and the GI50 (HT29 colon) was 2.02 µM. For the same molecule, the TGI (HT29 colon) was 18.1 µM, the GI50 (MCF7 breast) was 2 µM and the TGI (MCF7 breast) was 12.1 µM. It also gave a GI50 (IGROV1 ovarian) of 2.36 µM, a TGI (IGROV1 ovarian) of 13.3 µM and a GI50 (HCT-15 colon) of 0.746 µM. For the same molecule, the TGI (HCT-15 colon) was 15.9 µM, the GI50 (OVCAR-5 ovarian) was 2.49 µM and the TGI (OVCAR-5 ovarian) was 17.5 µM. The GI50 (SK-MEL-5 melanoma) was 1.52 µM, the TGI (SK-MEL-5 melanoma) was 8.29 µM and the GI50 (NCI-H522 lung) was 2.36 µM. For the same molecule, the TGI (NCI-H522 lung) was 11.7 µM, the GI50 (NCI/ADR-RES ovarian) was 11.5 µM and the TGI (NCI/ADR-RES ovarian) was 29.9 µM. It also gave a GI50 (HOP-62 NSCLC) of 0.686 µM, a TGI (HOP-62 NSCLC) of 12.1 µM and a GI50 (U251 CNS) of 0.78 µM. It also gave a TGI (U251 CNS) of 12.2 µM, a GI50 (K-562 leukemia) of 1.76 µM and a TGI (K-562 leukemia) of 11.9 µM. For the same molecule, the GI50 (PC-3 prostate) was 2.11 µM, the TGI (PC-3 prostate) was 15.4 µM and the GI50 (SK-MEL-2 melanoma) was 2.65 µM. For the same molecule, the TGI (SK-MEL-2 melanoma) was 14.7 µM.
